Results as given in ChEMBL document CHEMBL1201862, “PubChem BioAssay data set” (2004).
The source made the active and inactive calls. Rule as the data show it: actives have a measured IC50 and inactives only a lower limit.

Target: Envelope glycoprotein gp160 (Human immunodeficiency virus 1, UniProt Q6QLK5)
Experiment: inhibitors of HIV fusion peptide binding, primary screen, biochemical, uHTS, fluorescence dequenching (AID 1986)

Sequence of Envelope glycoprotein gp160 (Q6QLK5 whole entry, the tested form may be a part): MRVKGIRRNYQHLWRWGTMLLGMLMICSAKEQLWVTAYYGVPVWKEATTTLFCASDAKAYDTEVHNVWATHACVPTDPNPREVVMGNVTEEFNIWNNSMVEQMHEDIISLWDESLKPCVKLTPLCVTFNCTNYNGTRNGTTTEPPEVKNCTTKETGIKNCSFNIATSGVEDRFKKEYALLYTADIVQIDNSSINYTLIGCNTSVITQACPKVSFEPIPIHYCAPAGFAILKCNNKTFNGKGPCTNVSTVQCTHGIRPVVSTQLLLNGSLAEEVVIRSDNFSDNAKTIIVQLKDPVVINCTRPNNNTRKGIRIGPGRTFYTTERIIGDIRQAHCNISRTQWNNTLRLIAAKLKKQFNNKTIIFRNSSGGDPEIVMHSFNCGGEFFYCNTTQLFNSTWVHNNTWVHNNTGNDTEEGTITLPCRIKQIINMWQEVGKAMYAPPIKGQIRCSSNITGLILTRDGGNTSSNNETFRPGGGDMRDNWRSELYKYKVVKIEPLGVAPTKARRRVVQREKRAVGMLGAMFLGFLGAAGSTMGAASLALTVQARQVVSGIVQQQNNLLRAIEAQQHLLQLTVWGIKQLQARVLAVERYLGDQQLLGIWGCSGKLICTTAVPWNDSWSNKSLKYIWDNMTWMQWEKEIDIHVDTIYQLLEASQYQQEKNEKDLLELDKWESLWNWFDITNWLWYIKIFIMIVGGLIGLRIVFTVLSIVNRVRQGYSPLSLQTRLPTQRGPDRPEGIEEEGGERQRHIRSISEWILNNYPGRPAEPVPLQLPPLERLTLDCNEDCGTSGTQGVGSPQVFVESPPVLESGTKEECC

In the case of `O=C(CN1C(=O)/C(=C2\SC(=S)N(CCS(=O)(=O)O)C2=O)c2ccccc21)Nc1cccc(Br)c1`, the IC50 is reported as 9.81 µM (active).
